Columns and labels:
Format in all cases: in vivo, human
[1] = tested on: patients with symptomatic MDD; assay: Montgomery-Asberg Depression Rating Scale (MADRS), Phase 1B study; details: for MADRS value: FIG. 2; for Cohen's d value, MADRS (ANCOVA): all test groups (n=18) vs placebo (n=6)
Experimental: (§1) A double-blind, placebo-controlled, multiple-ascending-dose study employing the compound of formula (1) was performed in patients with symptomatic MDD. Twenty-four subjects were recruited, with their diagnosis and illness severity confirmed through an independent, remote SAFER interview (Targum, S. D., et al., CNS Neurosci. Ther. (2008) 14:2-9) from the Massachusetts General Hospital (MGH) Clinical Trials Network and Institute (CTNI) raters. Each patient underwent a screening for eligibility (Day −37 to Day −6 or −3) and eligible patients were admitted into the unit on Day −5 to complete their wash-out and be reconfirmed for eligibility and for baseline assessments. The patients received daily dosing of formula (1) or placebo for 28 days starting on Day 1 and were followed for safety, pharmacokinetics (PK) and pharmacodynamics (PD) until discharge. At the conclusion of in-house dosing (Day 28), patients remained in the unit for up to 3 additional days, at the psychiatrist's discretion. On Day 35 (±3), Day 42 (±3), Day 49 (±3) and Day 70 (±3) outpatient follow-up visits took place. Patients returned to the unit for extensive follow-up on Day 56 (±3) and Day 84 (±3) (End-of-study).
(§2) The subjects were randomized into four groups of 6 patients each to receive 40 mg of formula (1) per dose administered orally in gelatin capsules once daily, twice daily or three times daily to provide 40 or 80 or 120 mg daily of formula (1) or placebo for 28 days. Each cohort included at least 3 female subjects. In this example, qEEG was used to characterize pharmacodynamic effects.
(§3) In this example, the results of the study of Example 1 were evaluated by the efficacy assessments that included the Montgomery-Asberg Depression Rating Scale (MADRS), the Clinician Global Impression-Improvement (CGI-I), the Symptoms of Depression Questionnaire (SDQ) and the Cognitive and Physical Functioning Questionnaire (CPFQ). […] These improvements persisted over time during the follow-up for MADRS, SDQ and CPFQ.
(§4) Baseline values were adjusted for initial differences and the results for the placebo group (n=6) and the tested groups (n=18) were collapsed. The sizes of the effects were estimated as Cohen's d group mean differences where d=0.20 indicates only a small difference, d=0.50 indicates a medium difference and d=0.80 indicates a large difference. Cohen's d values are described in Cohen, J. (1988) Statistical Power Analysis for the Behavioral Sciences (2nd ed.), Lawrence Erlbaum Associates. D values are used when the scale of a dependent variable is not inherently meaningful, the difference between means are considered in standardized units. That is, effect size is measured in terms of the number of standard deviations by which the means differ. Two commonly used measures are Hedges' g and Cohen's d. Both of these measures consist of the difference between means divided by the standard deviation. They differ only in that Hedges' g uses the version of the standard deviation formula in which division is by N−1, whereas Cohen's d uses the version in which division is by N.
(§5) Covariance is a measure of how much two variables change together and how strong the relationship is between them (Lenth, R. V., The American Statistician (2001) 55:187-193). Analysis of covariance (ANCOVA) is a general linear model which blends analysis of variance (ANOVA) and regression. ANCOVA evaluates whether population means of a dependent variable (DV) are equal across levels of a categorical independent variable (IV), while statistically controlling for the effects of other continuous variables that are not of primary interest, known as covariates (CV). Therefore, when performing ANCOVA, the DV means are adjusted to what they would be if all groups were equal on the CV. In the CGI-I assay, Day 7 was used as the baseline value; in the remaining assays, Day 0 was used as baseline.

[2] = tested on: patients with symptomatic MDD; assay: Symptoms of Depression Questionnaire (SDQ), Phase 1B study; details: for Cohen's d value, SDQ (ANCOVA): all test groups (n=18) vs placebo (n=6)
Experimental: as §1, §2, §3, §4, §5

[3] = tested on: patients with symptomatic MDD; assay: Cognitive and Physical Functioning Questionnaire (CPFQ), Phase 1B study; details: for Cohen's d value, CPFQ (ANCOVA): all test groups (n=18) vs placebo (n=6)
Experimental: as §1, §2, §3, §4, §5

[4] = Day 14, 1x = 40 mg/day oral (n=6)
[5] = Day 14, 2x = 80 mg/day oral (n=6)
[6] = Day 14, 3x = 120 mg/day oral (n=6)
[7] = Day 14, all three dose groups pooled (n=18)
[8] = Day 28, 1x = 40 mg/day oral (n=6)
[9] = Day 28, 2x = 80 mg/day oral (n=6)
[10] = Day 28, 3x = 120 mg/day oral (n=6)
[11] = Day 28, all three dose groups pooled (n=18)
[12] = Day 56 (follow-up after 28 days dosing), 1x = 40 mg/day oral
[13] = Day 56 (follow-up after 28 days dosing), 2x = 80 mg/day oral
[14] = Day 56 (follow-up after 28 days dosing), 3x = 120 mg/day oral
[15] = Day 56 (follow-up after 28 days dosing), all three dose groups pooled (n=18)
[16] = Day 84 (follow-up after 28 days dosing), 1x = 40 mg/day oral
[17] = Day 84 (follow-up after 28 days dosing), 2x = 80 mg/day oral
[18] = Day 84 (follow-up after 28 days dosing), 3x = 120 mg/day oral
[19] = Day 84 (follow-up after 28 days dosing), all three dose groups pooled
[20] = Day −5 (baseline before dosing), 1x = 40 mg/day group
[21] = Day −5 (baseline before dosing), 2x = 80 mg/day group
[22] = Day −5 (baseline before dosing), 3x = 120 mg/day group
[23] = Day −5 (baseline before dosing), all three dose groups pooled (n=18)

CC(C)CCNc1ncccc1C(=O)N1CCN(Cc2ccccc2)CC1 [formula (1)]
MADRS value ([1]; 40 mg/day, controls (n=2) 23.5): 12.5 | MADRS value ([1]; 80 mg/day, controls (n=2) 18): 15 | MADRS value ([1]; 120 mg/day, controls (n=2) 18): 16 | MADRS Means [1, 4]: 20.1667 | MADRS Means [1, 5]: 18.8333 | MADRS Means [1, 6]: 15.8333 | MADRS Means [1, 7]: 18.2778 | MADRS Means [1, 8]: 12.6667 | MADRS Means [1, 9]: 15 | MADRS Means [1, 10]: 16.5 | MADRS Means [1, 11]: 14.7222 | Cohen's d value, MADRS (ANCOVA) ([1]; Day 30): 0.95 | MADRS Means [1, 12]: 14.3333 | MADRS Means [1, 13]: 12 | MADRS Means [1, 14]: 11.3333 | MADRS Means [1, 15]: 12.5556 | MADRS Means [1, 16]: 15 | MADRS Means [1, 17]: 12 | MADRS Means [1, 18]: 10.8 | MADRS Means [1, 19]: 12.7059 | Cohen's d value, MADRS (ANCOVA) ([1]; Day 85): 0.84 | MADRS Means [1, 20]: 24.8333 | MADRS Means [1, 21]: 24.6667 | MADRS Means [1, 22]: 24.3333 | MADRS Means [1, 23]: 24.6111 | SDQ score ([2]; 40 mg/day, FIG. 3, placebo (n=2) 3.1): 2.5 | SDQ score ([2]; 80 mg/day, FIG. 3, controls (n=2) 3.5): 2.7 | SDQ score versus controls ([2]; 120 mg/day, at 28 days, FIG. 3): slightly higher than controls | SDQ Means [2, 4]: 3.1174 | SDQ Means [2, 5]: 2.8485 | SDQ Means [2, 6]: 2.822 | SDQ Means [2, 7]: 2.9293 | SDQ Means [2, 8]: 2.5795 | SDQ Means [2, 9]: 2.6856 | SDQ Means [2, 10]: 2.6439 | SDQ Means [2, 11]: 2.6364 | Cohen's d value, SDQ (ANCOVA) ([2]; Day 30): 0.90 | SDQ Means [2, 12]: 2.6023 | SDQ Means [2, 13]: 2.3371 | SDQ Means [2, 14]: 2.5909 | SDQ Means [2, 15]: 2.5101 | SDQ Means [2, 16]: 2.6364 | SDQ Means [2, 17]: 2.4508 | SDQ Means [2, 18]: 2.4318 | SDQ Means [2, 19]: 2.5107 | Cohen's d value, SDQ (ANCOVA) ([2]; Day 85): 1.10 | SDQ Means [2, 20]: 3.4508 | SDQ Means [2, 21]: 3.2652 | SDQ Means [2, 22]: 3.4242 | SDQ Means [2, 23]: 3.3801 | CPFQ value ([3]; 80 mg/day, FIG. 4, controls (n=2) 4.6): 2.6 | Cohen's d value, CPFQ (ANCOVA) ([3]; 30 days): 0.94 | CPFQ Means [3, 4]: 3.3095 | CPFQ Means [3, 5]: 3.2143 | CPFQ Means [3, 6]: 3 | CPFQ Means [3, 7]: 3.1746 | CPFQ Means [3, 8]: 2.7857 | CPFQ Means [3, 9]: 2.6905 | CPFQ Means [3, 10]: 2.6667 | CPFQ Means [3, 11]: 2.7143 | CPFQ Means [3, 12]: 2.9048 | CPFQ Means [3, 13]: 2.3571 | CPFQ Means [3, 14]: 2.5714 | CPFQ Means [3, 15]: 2.6111 | CPFQ Means [3, 16]: 2.8571 | CPFQ Means [3, 17]: 2.4286 | CPFQ Means [3, 18]: 2.3714 | CPFQ Means [3, 19]: 2.563 | Cohen's d value, CPFQ (ANCOVA) ([3]; Day 85): 1.20 | CPFQ Means [3, 20]: 4.0238 | CPFQ Means [3, 21]: 3.4762 | CPFQ Means [3, 22]: 3.7143 | CPFQ Means [3, 23]: 3.7381

Source: patent US9572807B2, “Protocols for treatment of major depressive disorder (MDD)” (NEURALSTEM, INC., priority 2014, dated 2017)
